# Tests used:
# [1] = Example 1: flush rating (Global Flush Severity Scale) after DMF without aspirin, with swallowed aspirin or with intraoral aspirin; type: in vivo, human; conditions: MS patients
# Method: Seven human patients with multiple sclerosis who were already taking dimethyl fumarate and had experienced flushing side effects from dimethyl fumarate were recruited for this study. […] In Period I, each patient was given their standard dose of 240 mg dimethyl fumarate orally. Each patient was asked to rate his or her flush on the Global Flush Severity Scale (GFSS) (see Paolini et al. Int. J. Clin. Pract. 62(6):896-904 (2008)), when the flush completely resolved. The Global Flushing Severity Score measures, overall, in the previous 24 hours, how each patient rates the flushing symptoms, including redness, warmth, tingling, and itchiness of the skin. […] After the flush completely resolved, then each patient recorded his or her GFSS flush rating. Not until at least two days later did Period III start. At Period III, each patient was asked to not swallow the orally administered aspirin (162 mg) but to allow the aspirin to be absorbed through the oral mucosa. The aspirin was in powdered form and the remaining aspirin in the mouth was washed out with water. Afterwards, 240 mg of dimethyl fumarate was swallowed with a glass of water. Still, the flush was rated (GFSS) after it was resolved.
# [2] = Example 2: comparative bioavailability, monomethyl fumarate plasma pharmacokinetics; type: in vivo, human; conditions: normalized to 180 mg DMF
# Method: The delayed-release capsules were placed on the subject's tongue. Subjects were instructed to suck the delayed-release capsule until the acetylsalicylic acid coating was dissolved or up to a maximum of 1 minute after the delayed-release capsule had been placed on the subject's tongue. The delayed-release capsule should not be chewed, bitten, or swallowed during that 1-minute period or until the coating is dissolved; only the saliva could be swallowed. The subject was instructed to give a hand sign once the acetylsalicylic acid coating was dissolved (the capsule should feel and taste different). […]
# [3] = Example 2: flushing assessment in crossover study, VTS-72 vs Tecfidera; type: in vivo, human; conditions: Example 2 conclusion, co-administration of aspirin
# Method: This was a single center, pilot, comparative bioavailability, open-label, randomized, single-dose, 2-period, 2-sequence, crossover study under fasting conditions. A total of 12 healthy adult male or female volunteers were included in this pilot study. For each period, subjects were confined from at least 10 hours before dosing until 12 hours post-dose. There was a washout of 7 days or more between doses. The washout period could be increased for logistical considerations. Participation of each subject in this study lasted approximately 9 days. Subjects were administered each treatment according to the 2-period, 2-sequence, block randomization scheme.
# Treatment A: Subjects were required not to wear dentures or to remove their tongue piercing at the time of dosing. The delayed-release capsules were placed on the subject's tongue. Subjects were instructed to suck the delayed-release capsule until the acetylsalicylic acid coating was dissolved or up to a maximum of 1 minute after the delayed-release capsule had been placed on the subject's tongue. […]
# Flushing (including redness, warmth, tingling, and itchiness of the skin) was assessed at 0.5, 1, 1.5, 2, 2.5, 3, 3.5, and 4 hours post-dose using the question and the rating scale presented in Section—Flushing Assessment below. […] Flushing symptoms were recorded as adverse events.
# Flushing was assessed using the question below. […]
# [4] = Example 3: flushing side effect, VTS-72 (205 mg DMF) vs Tecfidera; type: in vivo, human; conditions: Example 3, co-administration of aspirin
# Method: Flushing (including redness, warmth, tingling, and itchiness of the skin) was assessed at 0.5, 1, 1.5, 2, 2.5, 3, 3.5, and 4 hours post-dose using the question and the rating scale presented in Section—Flushing Assessment below. Half grades were not assigned. Flushing symptoms were recorded as adverse events.
# Flushing was assessed using the question below. The question was asked by the clinical staff: • Question 1: Overall, at this moment, how would you rate your flushing symptoms (including redness, warmth, tingling, and itchiness of the skin)? Score from 0 to 10 (none 0, mild 1 to 3, moderate 4 to 6, severe 7 to 9, extreme 10).
# 16 healthy individuals were enrolled for this study.
# [5] = pretreatment with 325 mg aspirin for 4 days; Sheikh et al., Clin Ther. 2013; cited from earlier work
smiles,measurement,setting,value
"CC(=O)Oc1ccccc1C(=O)O [aspirin, acetylsalicylic acid]",reduction of severity of flush (GFSS) as compared to Period I,[1]; Period II: 162 mg aspirin orally swallowed followed by 240 mg dimethyl fumarate,33%
same,reduction of severity of flush (GFSS) as compared to Period I,"[1]; Period III: 162 mg aspirin absorbed through the oral mucosa, then 240 mg dimethyl fumarate",52%
same,impact of co-administration of aspirin on the Cmax of DMF,[2],did not have significant impact
same,reduction of the flushing side effect,[3],more than 35%
same,reduction of the flushing side effect,[4],about 61%
same,effect of aspirin pretreatment on the pharmacokinetic profile of DMF,[5],did not affect
